Reference: patent publication US7026349B2, “Sulfonamides” (SmithKline Beecham Corporation, priority 2001, dated 2006)

Target: T1, human and rat GPR-14 (UniProt Q9UKP6)
T1 sequence (Q9UKP6 1-389): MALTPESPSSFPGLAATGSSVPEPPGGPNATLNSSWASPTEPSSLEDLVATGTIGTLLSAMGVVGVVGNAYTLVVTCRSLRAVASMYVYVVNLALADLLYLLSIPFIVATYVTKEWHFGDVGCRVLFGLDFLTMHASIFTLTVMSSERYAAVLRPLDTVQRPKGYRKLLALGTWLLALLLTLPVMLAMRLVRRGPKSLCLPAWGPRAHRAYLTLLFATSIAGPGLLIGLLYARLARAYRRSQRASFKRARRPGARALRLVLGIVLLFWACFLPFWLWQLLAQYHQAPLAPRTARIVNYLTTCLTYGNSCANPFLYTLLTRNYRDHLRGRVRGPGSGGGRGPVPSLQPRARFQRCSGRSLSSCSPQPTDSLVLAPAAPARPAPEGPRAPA
Test: Radioligand binding ([125I] h-U-II) to HEK-293 cell membranes containing cloned GPR-14
Settings: stable cloned GPR-14, 200 pM [125I] h-U-II, species of receptor not given

Ki: 270 nM
Structure (SMILES): COc1cc(Br)c(S(=O)(=O)Nc2ccc(Cl)c(O[C@H]3CCN(C)C3)c2)cc1OC [Example 10, 2-Bromo-N-[4-chloro-3-((S)-1-methyl-pyrrolidin-3-yloxy)-phenyl]-4,5-dimethoxy-benzenesulfonamide]
